Measurements as given in PMC11605291 (Frontiers in Pharmacology, 2024).

Experiments:
[1] = Metabolite profiling and identification in plasma, urine and feces (LC/RAM/MS); assay type: in vivo, human; details: for Plasma %AUC (percentage of total plasma radioactivity): AUC-pooled 0–72 h plasma; for Plasma %AUC (percentage of total plasma radioactivity) / Urine %Dose / Feces %Dose: mean of 6 subjects; for Urine %Dose: pooled 0–72 h urine, total in urine 37.15%; for Feces %Dose: pooled 0–168 h feces, total in feces 62.08%
Method: The plasma samples from six subjects were pooled individually according to the AUC method to obtain 6 plasma samples of 0–72 h ([Hop et al., 1998]). A portion of the proportionally mixed plasma sample was taken and added to a certain volume of acetonitrile (3×, v/v) for extraction, vortexed for 1 min, shaken for 10 min and then stored in a refrigerator at 4°C for 30 min, the mixture was removed and vortexed for 2 min and then centrifuged for 10 min at 10,000×g and 4°C. The residue from the extraction was firstly ultrasonically suspended using 1 mL of ultrapure water and then extracted using methanol (2×, v/v) and repeated twice. The organic solvent extracts were combined, blown dry with nitrogen and reconstituted with acetonitrile: ultrapure water (1:1), the reconstituted solution was centrifuged at 4°C and 10,000×g for 10 min, and the supernatant was used for radio-metabolite profiling.
The radioactivity in the organic solvent extract and the reconstitution solution was determined by LSC. The solid residue after extraction was dissolved by heating with 1N KOH solution and added to the scintillation solution to determine its radioactivity. All the final data were used to examine the recovery of radioactivity during plasma extraction.
The urine samples from the six subjects were mixed in the same volume percentage to obtain six 0–72 h urine samples. A portion of the proportionally mixed urine sample was centrifuged for 10 min at approximately 10,000×g and 4°C. Two samples were taken before and after centrifugation, and the radioactivity of the samples was determined by LSC, and the data obtained were used to calculate the recovery of radioactivity during the centrifugation process. A portion of the supernatant after centrifugation was used directly for radio-metabolite profiling.
The fecal samples from the six subjects were mixed with the same weight percentage to obtain 6 fecal homogenate samples of 0–168 h. A portion of the proportionally mixed fecal homogenate samples was taken and extracted by adding a volume of acetonitrile (3×, v/v), vortexed for 5 min at room temperature, sonicated for 5 min and then centrifuged for 10 min at 10,000 × g and 4°C. The residue of the extracted material was firstly sonicated and mixed using about 1 mL of ultrapure water before extracted using methanol (2×, v/v). The process was repeated twice and the organic extracts were combined, blown dry using nitrogen and then reconstituted with dimethyl sulfoxide: acetonitrile: ultrapure water (3:2:5), the reconstituted solution was centrifuged at 10,000×g at 4°C for 10 min and the supernatant was used for radio-metabolite profiling. […] LSC was used to determine the intensity of radioactivity contained in the organic solvent extract and in the reconstituted solution. The solid residue after extraction is fully combusted by an oxidative combustor, and the [^14C]carbon dioxide produced by combustion of the sample is captured with a scintillation solution to determine its radioactivity intensity. All final data were used to examine the extraction and recovery of radioactivity from fecal homogenate samples.
A high performance liquid chromatograph coupled with an online isotope detector and mass spectrometry (LC/RAM/MS) was used for the identification of radioactive metabolite profiles. The HPLC method consisted of an HPLC system (Shimadzu UFLC-20A-Lite), a chromatographic column (ACE Excel 3 C18, 150 × 4.6 mm id), mobile phase A (0.4% aqueous formic acid, pH = 3.2 adjusted with ammonia) and mobile phase B (acetonitrile) at a flow rate of 0.7 mL/min. The gradient was 0% B for the 0–5 min, 20% B from 15 min to 30 min, 22% B from 32 to 40 min, and 70%–100% B from 60 to 72 min. The column temperature was 28°C. […]

[2] = tested on: cDNA-expressed recombinant human cytochrome P450s and silensomes as well as human liver microsomes with selective chemical CYP inhibitors; design: method as in unpublished data; details: conducted in Hutch-Med DMPK department ref unpublished data; cited from earlier work

F: %Dose in feces (Figure 4) [1] | P: %AUC in plasma (Figure 4) [1] | U: %Dose in urine (Figure 4) [1] | Feces %Dose [1] | %Dose in pooled feces ([1]; subject 01001) | %Dose in pooled feces ([1]; subject 01002) | %Dose in pooled feces ([1]; subject 01003) | %AUC in AUC-pooled plasma ([1]; subject 01004) | %Dose in pooled feces ([1]; subject 01004) | %AUC in AUC-pooled plasma ([1]; subject 01005) | %Dose in pooled feces ([1]; subject 01005) | %AUC in AUC-pooled plasma ([1]; subject 01006) | %Dose in pooled feces ([1]; subject 01006) | Structure (SMILES) | Plasma %AUC (percentage of total plasma radioactivity) [1] | Urine %Dose [1] | enzyme involved in the formation of the metabolite from amdizalisib [2] | also measured
11.30% | 20.91% | 8.08% | 11.30 %Dose | 9.93 %Dose | 13.05 %Dose | 10.17 %Dose | 16.67 %AUC | 5.32 %Dose | 20.09 %AUC | 14.97 %Dose | 36.04 %AUC | 14.33 %Dose | C[C@H](Nc1nc(O)nc(N)c1C#N)c1cc2ncc(Cl)n2nc1-c1ccccc1 [M406-2] | 20.91 %AUC | 8.08 %Dose | aldehyde oxidase | contribution to amdizalisib metabolism ([1]; estimated from the metabolite amounts in excreta): around 20%; %AUC in AUC-pooled plasma ([1]; subject 01001): 16.31 %AUC; %Dose in pooled urine ([1]; subject 01001): 8.77 %Dose; %AUC in AUC-pooled plasma ([1]; subject 01002): 16.12 %AUC; %Dose in pooled urine ([1]; subject 01002): 9.03 %Dose; %AUC in AUC-pooled plasma ([1]; subject 01003): 20.20 %AUC; %Dose in pooled urine ([1]; subject 01003): 8.92 %Dose; %Dose in pooled urine ([1]; subject 01004): 7.29 %Dose; %Dose in pooled urine ([1]; subject 01005): 6.50 %Dose; %Dose in pooled urine ([1]; subject 01006): 7.98 %Dose
1.04% | + | + | 1.04 %Dose | 0.40 %Dose | 0.91 %Dose | 2.11 %Dose |  | 0.69 %Dose |  | 1.53 %Dose |  | 0.60 %Dose | C[C@H](Nc1ncnc(N)c1C(N)=O)c1cc2ncc(Cl)n2nc1-c1ccccc1 [M408] | detected by mass spectrometry, but could not be quantified and + | detected by mass spectrometry, but could not be quantified and + |  | 
5.06% | 0.12% |  | 5.06 %Dose | 4.78 %Dose | 5.18 %Dose | 5.65 %Dose | 0.16 %AUC | 6.15 %Dose | 0.26 %AUC | 4.03 %Dose | 0.27 %AUC | 4.54 %Dose | C[C@H](Nc1ncnc(N)c1C#N)c1cc2ncc(Cl)n2nc1-c1ccc(O)cc1 [M406-1] | 0.12 %AUC |  | formed primarily by CYP2C9 | 

Structure (SMILES) | F: %Dose in feces (Figure 4) [1] | P: %AUC in plasma (Figure 4) [1] | U: %Dose in urine (Figure 4) [1] | Feces %Dose [1] | %Dose in pooled feces ([1]; subject 01001) | %Dose in pooled feces ([1]; subject 01002) | %Dose in pooled feces ([1]; subject 01003) | %AUC in AUC-pooled plasma ([1]; subject 01004) | %Dose in pooled feces ([1]; subject 01004) | %AUC in AUC-pooled plasma ([1]; subject 01005) | %Dose in pooled feces ([1]; subject 01005) | %AUC in AUC-pooled plasma ([1]; subject 01006) | %Dose in pooled feces ([1]; subject 01006) | Plasma %AUC (percentage of total plasma radioactivity) [1] | Urine %Dose [1] | enzyme involved in the formation of the metabolite from amdizalisib [2] | also measured
CC(=O)c1cc2ncc(Cl)n2nc1-c1ccccc1 [M271] | + | + | + | detected by mass spectrometry, but could not be quantified and + |  |  |  |  |  |  |  |  |  | detected by mass spectrometry, but could not be quantified and + | detected by mass spectrometry, but could not be quantified and + |  | 
